# From patent US20240199624A1, “COMPOUNDS, COMPOSITIONS, AND METHODS” (CHDI Foundation, Inc., priority 2022, published 2024)
# Tests used:
# Format in all cases: biochemical
# [1] = target: T1, human MutSbeta (Homo sapiens, UniProt P20585+P43246); experiment: P33 SPA 1.1
# T1 construct: Msh2(1-934), Gene ID NP_000242.1; Msh3(1-1137), Gene ID J04810.1
# Description: P33 SPA: Enzyme human MutSbeta (Msh2(1-934), Gene ID NP_000242.1, Msh3(1-1137), Gene ID J04810.1) and 22 bp biotin-labeled DNA containing a GT-mismatch (purchased from Curia Global, TOP 5′-[…]-3′; BOT 3′-AGTAGCTAGGC - - - CGAAGTCTACC-5′-Biotin) were pre-incubated at equimolar concentration for 15 min at room temperature (“RT”) in assay buffer (25 mM HEPES pH=7.5, 150 mM KCl, 2 mM MgCl2, 2 mM GSH, 0.01% Tween-20). ATP (10 μL, 2× final concentration of γ-[^33P]-ATP (final 0.1 nM; Hartmann Analytic, FF-301) and cold ATP (final 2 μM)) was added to compounds (400 nL spotted as concentration response in 100% DMSO into wells of an OptiPlate) and pre-incubated for 30 min at RT. Then, enzyme with DNA was added (10 μL, 2× final concentration of 7 nM) and incubated for 60 min at 37° C. in a total volume of 20 μL per well. Decay of [^33P] with a half-life of 25.4 days was corrected by increasing the concentration of the labelled nucleotide with the appropriate factor; all steps with radioactive ATP were conducted behind appropriate shielding. Then, 20 μL of a 1:2 mix of ammonium molybdate (20 mg/mL Ammonium molybdate in 2.4 M HCl) and SPA beads (ProteinA SPA beads from Perkin Elmer Cat #RPNQ0019 at 7.5 mg/mL+1% azide) was added per well and incubated at RT for 2 min. Then, 40 μL of 7 M CsCl and 0.1 M citrate was added per well and incubated for 20 h at RT before measuring on the MicroBeta (top read mode, 1 min per well). For full plate processing, all reagents were transferred with a pipettor (Selma, CyBio) apart from the final reagent (CsCl+citrate) which was added with a dispenser (MultiFlo, BioTek). Data analysis during assay development was done with Prism GraphPad.
# P33 SPA 11: For the SPA 1.1 assay, the addition of reagents was reversed, i.e. enzyme was first added to the compounds and pre-incubated followed by ATP addition; thus, the assay was aligned with ADP Glo 1.1 reagent addition order. The assay was repeated under similar conditions, and the results are shown below in Table 5B. It is contemplated the solubility of the compounds and/or varying test occasions may account for variability of assay results.
# [2] = target: T1, human MutSbeta; experiment: ADP Glo assay 2.1; details: 10 μM ATP, 7 nM enzyme; buffer with 5 mM GSH, 0.2% Ovalbumin
# Description: (§1) ADP Glo assay 2.1: Enzyme human MutSbeta (Msh2(1-934), Gene ID NP_000242.1, Msh3(1-1137), Gene ID J04810.1) with 22 bp biotin-labeled DNA containing a GT-mismatch (purchased from Curia Global, TOP 5′-[…]-3′; BOT 3′-AGTAGCTAGGC - - - CGAAGTCTACC-5′-Biotin) was pre-incubated in assay buffer (25 mM HEPES pH=7.5, 150 mM KCl, 5 mM MgCl2, 5 mM GSH, 0.1% Pluronic F-127, 0.2% Ovalbumin) to allow formation of the enzyme-DNA complex. Plates with spotted compounds in serial dilutions in DMSO (80 nL) were filled with ATP (2 μL, 10 μM final concentration) followed by an incubation of 30 min at RT. Then, enzyme was added (2 μL, 7 nM final concentration) and the reaction was allowed to proceed for 60 min at 37° C. After the ATPase reaction, the commercially available “ADP-Glo Reagent” was added (incubate 40 min at RT) to deplete remaining ATP via the activity of […]. Subsequently, the commercially available “Kinase Detection Reagent” converted ADP to ATP via the activity of PEP and Pyruvate kinase. The ATP was then converted into light by Ultra-Glo Luciferase. The obtained luminescence was proportional to the ADP concentration generated during the initial ATPase reaction. The luminescence signal was measured with an Envision reader, raw data were analyzed towards controls (full reaction=0% inhibition; no reaction in absence of enzyme=100% inhibition) and IC50 curves were analyzed with the inhouse software Aplus.
# [3] = target: T1, human MutSbeta; experiment: ADP Glo assay 2.2; details: as 2.1 but buffer with 2 mM GSH
# Description: as §1
# ADP Glo assay 2.2: A similar protocol was used as in the ADP Glo Assay 2.1 above, except the following assay buffer was used: 25 mM HEPES pH=7.5, 150 mM KCl, 5 mM MgCl2, 2 mM GSH, 0.1% Pluronic F-127, 0.2% Ovalbumin. It is contemplated the solubility of the compounds and/or varying test occasions and/or assay conditions may account for variability of assay results.
# [4] = Table 5A, enzyme first added to compounds, then ATP
# [5] = Table 5B, assay repeated under similar conditions
# T1 sequence (P43246 whole entry): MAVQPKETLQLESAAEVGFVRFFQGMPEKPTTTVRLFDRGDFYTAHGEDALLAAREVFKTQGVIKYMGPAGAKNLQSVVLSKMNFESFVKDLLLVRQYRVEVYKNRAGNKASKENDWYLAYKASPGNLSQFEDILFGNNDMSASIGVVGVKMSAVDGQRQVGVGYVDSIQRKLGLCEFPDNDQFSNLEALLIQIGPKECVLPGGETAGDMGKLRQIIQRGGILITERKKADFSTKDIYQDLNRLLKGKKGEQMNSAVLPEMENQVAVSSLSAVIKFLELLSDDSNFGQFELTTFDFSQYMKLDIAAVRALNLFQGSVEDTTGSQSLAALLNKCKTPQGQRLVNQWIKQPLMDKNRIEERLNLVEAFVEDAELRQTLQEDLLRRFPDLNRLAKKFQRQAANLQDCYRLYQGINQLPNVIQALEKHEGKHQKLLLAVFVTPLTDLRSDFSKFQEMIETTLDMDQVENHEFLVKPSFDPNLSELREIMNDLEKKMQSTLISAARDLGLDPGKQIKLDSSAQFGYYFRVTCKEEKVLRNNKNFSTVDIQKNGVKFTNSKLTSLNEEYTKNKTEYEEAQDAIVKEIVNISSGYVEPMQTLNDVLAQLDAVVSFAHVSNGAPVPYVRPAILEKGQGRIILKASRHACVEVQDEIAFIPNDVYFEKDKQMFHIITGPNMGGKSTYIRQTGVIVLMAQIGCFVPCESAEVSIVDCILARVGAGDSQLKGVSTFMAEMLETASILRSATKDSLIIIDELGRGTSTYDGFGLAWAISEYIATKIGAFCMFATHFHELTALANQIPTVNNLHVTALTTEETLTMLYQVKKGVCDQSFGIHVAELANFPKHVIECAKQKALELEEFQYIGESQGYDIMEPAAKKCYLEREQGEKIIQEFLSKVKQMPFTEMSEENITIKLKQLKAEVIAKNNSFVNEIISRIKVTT
# T1 sequence (P20585 whole entry): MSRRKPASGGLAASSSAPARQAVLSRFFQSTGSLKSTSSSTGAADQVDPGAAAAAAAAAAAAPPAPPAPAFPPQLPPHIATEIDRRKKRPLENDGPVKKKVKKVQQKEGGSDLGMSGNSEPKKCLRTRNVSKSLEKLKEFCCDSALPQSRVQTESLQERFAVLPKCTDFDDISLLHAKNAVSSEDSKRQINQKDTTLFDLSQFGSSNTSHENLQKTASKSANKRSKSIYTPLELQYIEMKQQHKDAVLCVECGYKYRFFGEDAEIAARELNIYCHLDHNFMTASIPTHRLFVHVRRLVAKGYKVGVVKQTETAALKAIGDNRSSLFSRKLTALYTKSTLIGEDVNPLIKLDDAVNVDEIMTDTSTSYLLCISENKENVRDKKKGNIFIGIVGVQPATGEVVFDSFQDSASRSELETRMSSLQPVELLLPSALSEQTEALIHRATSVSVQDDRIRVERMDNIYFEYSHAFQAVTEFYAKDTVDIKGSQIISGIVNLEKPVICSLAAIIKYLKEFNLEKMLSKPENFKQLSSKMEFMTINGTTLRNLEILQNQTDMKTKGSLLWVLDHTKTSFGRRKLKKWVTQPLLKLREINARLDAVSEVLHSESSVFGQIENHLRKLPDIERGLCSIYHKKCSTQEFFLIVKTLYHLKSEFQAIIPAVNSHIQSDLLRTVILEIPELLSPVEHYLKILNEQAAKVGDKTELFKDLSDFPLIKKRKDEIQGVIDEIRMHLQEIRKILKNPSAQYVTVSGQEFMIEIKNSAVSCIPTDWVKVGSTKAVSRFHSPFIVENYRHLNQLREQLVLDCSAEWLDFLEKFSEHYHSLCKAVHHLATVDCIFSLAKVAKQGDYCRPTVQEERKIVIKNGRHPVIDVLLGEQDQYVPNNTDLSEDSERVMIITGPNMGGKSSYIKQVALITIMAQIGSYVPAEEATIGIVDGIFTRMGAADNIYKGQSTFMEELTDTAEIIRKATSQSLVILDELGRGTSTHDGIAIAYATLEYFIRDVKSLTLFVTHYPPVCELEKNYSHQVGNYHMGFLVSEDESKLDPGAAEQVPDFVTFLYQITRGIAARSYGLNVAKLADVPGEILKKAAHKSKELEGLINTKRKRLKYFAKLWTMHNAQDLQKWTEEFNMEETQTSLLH
"IC50 [1, 4] [µM]","IC50 [1, 5] [µM]",IC50 [2] [µM],IC50 [3] [µM],SMILES
59,56,55,38,"CN1CCN(c2nc(Nc3cccc(C4CC4C(=O)O)c3)c3nccnc3n2)CC1 (single isomer, unassigned) [Compound 47]"
12,9,13,27,"CN1CCN(c2nc(Nc3cccc(C4CC4C(=O)O)c3)c3nccnc3n2)CC1 (single isomer, unassigned) [Compound 48]"
80,55,≥ 200,–,CCC(=O)Nc1cccc(Nc2nc(N3CCCN(C)CC3)nc3nccnc23)c1 [Compound 35]
34,119,71,97,CCC(=O)Nc1cccc(Nc2nc(N3CCN(C)CC3)nc3nccnc23)c1 [Compound 37]
19,9.5,13,10,"Cc1cnc2nc(N3CCN(C)CC3)nc(Nc3ccc(C)c(C)c3)c2n1 [Compound 38, N-(3,4-dimethylphenyl)-6-methyl-2-(4-methylpiperazin-1-yl)pteridin-4-amine]"
158,36,≥ 200,–,"Cc1cccc(Nc2nc(N3CCN(C)CC3)nc3nccnc23)c1C [Compound 39, N-(2,3-dimethylphenyl)-2-(4-methylpiperazin-1-yl)pteridin-4-amine]"
–,59,–,106,Cc1ccc(Nc2nc(N3CCN(C)CC3)nc3nccnc23)cc1S(N)(=O)=O [Compound 43]
–,71,–,88,CN1CCN(c2nc(NCc3cccc(S(N)(=O)=O)c3)c3nccnc3n2)CC1 [Compound 44]

# Further lines, the compound ahead of its results:
SMILES,"IC50 [1, 4] [µM]","IC50 [1, 5] [µM]",IC50 [2] [µM],IC50 [3] [µM]
"Cc1ccc(Nc2nc(N3CCCN(C)CC3)nc3nccnc23)cc1C [Compound 23, N-(3,4-dimethylphenyl)-2-(4-methyl-1,4-diazepan-1-yl)pteridin-4-amine]",71,64,≥ 200,–
Cc1ccc(Nc2nc(N3CCN(C(C)C)CC3)nc3nccnc23)cc1C [Compound 24],24,25,37,60
Cc1cc(CNc2nc(N3CCN(C)CC3)nc3nccnc23)ccc1F [Compound 25],20,24,29,35
Cc1cc(CNc2nc(N3CCN(C(C)C)CC3)nc3nccnc23)ccc1F [Compound 26],59,75,36,95
Cc1ccc(CNc2nc(N3CCN(C)CC3)nc3nccnc23)cc1C [Compound 27],28,18,22,26
Cc1ccc(CNc2nc(N3CCCN(C)CC3)nc3nccnc23)cc1C [Compound 28],55,131,38,82
Cc1cc(CNc2nc(N3CCCN(C)CC3)nc3nccnc23)ccc1F [Compound 29],120,61,≥ 200,–
COc1ccc(Nc2nc(N3CCN(C)CC3)nc3nccnc23)cc1Cl [Compound 30],23,28,23,25
Cc1ccc(Nc2nc(N3CCN(C)[C@@H](C)C3)nc3nccnc23)cc1C [Compound 31],25,45,19,41
Cc1ccc(Oc2nc(N3CCN(C)CC3)nc3nccnc23)cc1C [Compound 32],118,47,≥ 200,–
"CN1CCN(c2nc(Nc3cccc(Cl)c3)c3nccnc3n2)CC1 [Compound 33, N-(3-chlorophenyl)-2-(4-methylpiperazin-1-yl)pteridin-4-amine]",44,34,35,43
CN1CCN(c2nc(Nc3cccc(F)c3)c3nccnc3n2)CC1 [Compound 34],43,90,≥ 200,–
